Experimental data reported in patent US20170332666A1, “APPLICATION OF P-METHYL BENZOIC ACID OR SALTS THEREOF AS ADDITIVES FOR ANIMAL FEED” (priority 2015, published 2017).
Several values for one entry are separate records, joined by “and”; a condition that tells them apart may be missing. Identical values can stand only once.

Legend:
weaned pigs = experiment: Growth promotion test of weaned pigs with additives in creep feed; format: in vivo, pig (Duroc×Landrace×Large White piglets); settings: for Average daily weight gain / Diarrhea rate / Feed conversion ratio: 10 days
Excerpt: 140 weaned Duroc×Landrace×Large White piglets aged 28 days with similar body weight and further having an average body weight of 7.61 kg were divided into 14 groups, each with 10 pigs. After adding different concentrations of p-methyl benzoic acid or its calcium, sodium, potassium or zinc salt prepared by the embodiments disclosed herein into the conventional creep feed (excluding acidifying agent) of each group, the pigs were free feeding and drinking during the test period of 10 days, then to collect statistics of the weight gain and the feed conversion ratio as well as the diarrhea rate of test pig in each test group.

grass carps = experiment: Growth promotion test in grass carps with additives in feed; format: in vivo, grass carp; settings: for Feed conversion ratio (FCR) / Final weight / Survival rate SR / Weight gain rate: 3000 ppm in feed, 8 weeks
Experimental: The test was performed on an aquaculture farm of Guangzhou Insighter Biotechnology CO., LTD, and the test fish is grass carp. Healthy and lively grass carps with the same species and sizes were fed in a large cage for 4 weeks, thereafter used for formal test, and the test system is a small floating cage. The small floating cage and temporary cages were placed in a 3500 square meter pond of the test field. Water depth of the pond was close to 1.5m, and the pond water is fully aerated. When testing, 160 grass carps starved for 1 day were randomly divided into 4 groups, each group with 4 replicates, and each replicate with 10 fish. After the whole weighing, the samples were randomly placed in 16 cages and fed with different test diets. The test diets were self-formulated in accordance with Table 5, and the basic diets of different test groups were adding different growth promoters respectively. The test adopted artificial feeding with food restriction, and the feed intake was adjusted once a week, the feeding levels of two groups were completely consistent (metered by the initial weight), the fish in each group is fed two times in one day (7:30 and 15:00). The test lasted for 8 weeks.

meat-type ducks = experiment: Feeding test of meat-type ducks with additives in basic diet; format: in vivo, Cherry Valley ducks; settings: for Average daily weight gain / Average feed conversion ratio / Survival rate: 2000 ppm in basic diet, 30 days
Excerpt: 300 Cherry Valley ducks aged 1 day were divided into 6 groups with 50 ducks per group. After adding different concentrations of p-methyl benzoic acid or benzoic acid into the same basic diet (without antibiotics) of each group, the Cherry Valley ducks were free feeding and drinking, and continued feeding for 30 days, then to collect statistics of the production performance and the survival rate of test ducks, the test grouping and metered concentrations are shown in Table 3, and the results of the production performance are shown in Table 4.

broilers = experiment: Growth promotion test of broilers with acidifying agents in complete formula feed; format: in vivo, broilers (chicken); settings: for Effect on daily gain (in words) / Effect on feed conversion ratio (in words): 2000 ppm; for Average daily weight gain / Feed conversion ratio: 2000 ppm in complete formula feed, 21 days
Experimental: 300 broilers (female seedlings) aged 1 day were divided into 6 groups in accordance with Table 6, and each group with 50 broilers. Acidifying agent with different type or concentration was added to the complete formula feed for chickens without any acidifying agents in each group, the broilers were free feeding and drinking during the test period of 21 days and then to collect statistics of the weight gain and the feed conversion ratio of test broiler in each test group.

Row | SMILES | Average daily weight gain (weaned pigs; 2000 ppm in creep feed) | Diarrhea rate (weaned pigs; 2000 ppm in creep feed) | Feed conversion ratio (weaned pigs; 2000 ppm in creep feed) | Feed conversion ratio (FCR) (grass carps) | Final weight (grass carps) [g] | Survival rate SR (grass carps) [%] | Weight gain rate (grass carps) [%] | Survival rate (meat-type ducks) [%] | Effect on diarrhea rate of test pigs (in words) (weaned pigs; 2000 ppm) | Improvement of production performance (in words) (weaned pigs; 2000 ppm) | Effect on diarrhea rate of test pigs (in words) (weaned pigs; 10000 ppm to 20000 ppm) | Improvement of production performance (in words) (weaned pigs; 10000 ppm to 20000 ppm) | Effect on daily gain (in words) (broilers) | Effect on feed conversion ratio (in words) (broilers) | Average daily weight gain (broilers) [g] | Feed conversion ratio (broilers) | further results
1 | O=C(O)c1ccccc1 [benzoic acid] | 192.3 g and 193.5 g | 22.0% and 23.0% | 1.66 and 1.65 | 1.46 | 585 | 100 | 147 | 92 | – | – | – | – | – | – | – | – | Rate of anti-diarrhea as compared to phosphoric acid or citric acid (in words) (weaned pigs; equal concentration (2000 ppm)): increased slightly; Average daily weight gain (meat-type ducks): 59.7; Average feed conversion ratio (meat-type ducks): 2.10
2 | Cc1ccc(C(=O)[O-])cc1.Cc1ccc(C(=O)[O-])cc1.[Ca+2] [calcium p-methyl benzoate] | 203.6 g | 12.0% | 1.54 | 1.40 | 612 | 100 | 157 | – | significantly reduce the diarrhea rate | significant dose effect | significantly reduce the diarrhea rate | significant dose effect | – | – | – | – | Growth promotion versus blank control group (in words) (grass carps): obvious effects on growth promotion
3 | O=C(O)CC(O)(CC(=O)O)C(=O)O [citric acid, reference compound] | 181.3 g and 180.4 g | 31.0% and 26.0% | 1.67 and 1.68 | 1.47 | 582 | 100 | 147 | – | no such effects | no such effects | – | – | no such effects | no such effects | 19.8 | 1.88 | –
4 | O=CO [formic acid, reference compound] | 173.4 g | 25.0% | 1.65 | – | – | – | – | 93 | – | – | – | – | – | – | – | – | Average daily weight gain (meat-type ducks): 58.6; Average feed conversion ratio (meat-type ducks): 2.11
5 | Cc1ccc(C(=O)O)cc1 [p-methyl benzoic acid] | – | – | – | – | – | – | – | 100 | significantly reduce the diarrhea rate | significant dose effect | significantly reduce the diarrhea rate | significant dose effect | – | – | 24.5 | 1.76 | Average daily weight gain (weaned pigs; 10000 ppm in creep feed): 215.8 g; Diarrhea rate (weaned pigs; 10000 ppm in creep feed): 11.0%; Feed conversion ratio (weaned pigs; 10000 ppm in creep feed): 1.51; Average daily weight gain (weaned pigs; 20000 ppm in creep feed): 221.4 g; Diarrhea rate (weaned pigs; 20000 ppm in creep feed): 9.0%; Feed conversion ratio (weaned pigs; 20000 ppm in creep feed): 1.47; Production performance and survival rate (in words) (meat-type ducks): greatly improved
6 | O=P(O)(O)O [phosphoric acid, reference compound] | 175.3 g | 27.0% | 1.66 | – | – | – | – | – | no such effects | no such effects | – | – | – | – | – | – | –
7 | Cc1ccc(C(=O)[O-])cc1.[K+] [potassium p-methyl benzoate] | 205.8 g | 15.0% | 1.58 | – | – | – | – | – | – | – | significantly reduce the diarrhea rate | significant dose effect | – | – | – | – | –
8 | Cc1ccc(C(=O)[O-])cc1.[Na+] [sodium p-methyl benzoate] | 203.7 g | 17.0% | 1.55 | – | – | – | – | – | – | – | significantly reduce the diarrhea rate | significant dose effect | significantly increase the daily gain | improve the feed conversion ratio | 24.3 | 1.79 | –
9 | C/C=C/C=C/C(=O)O [sorbic acid] | – | – | – | – | – | – | – | – | – | – | – | – | no such effects | no such effects | 19.9 | 1.89 | –
10 | Cc1ccc(C(=O)[O-])cc1.Cc1ccc(C(=O)[O-])cc1.[Zn+2] [zinc p-methyl benzoate] | 201.3 g | 15.0% | 1.60 | – | – | – | – | – | – | – | – | – | – | – | – | – | –
